The IC50 is the point on the concentration scale where inhibition reaches its midpoint.

The target of experiment [1] is DGKα (Homo sapiens (Human), UniProt P23743). Nature of the experiment: In vitro DGKα inhibition assay (ADP-Glo). Conditions: His-tagged human recombinant enzyme, 0.1 nM DGKα, 50 μM ATP, 20 μM DLG, 90 minute incubation. Format: biochemical. The method in brief: (§1)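 His-tagged human DGKα (0.1 nM, 50 μM ATP) or DGKζ (0.4 nM, 30 μM ATP), each with 20 μM DLG, in Tris pH 7.5 buffer with CHAPS, Mg2+, Ca2+.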
Sequence of DGKα (P23743 whole entry): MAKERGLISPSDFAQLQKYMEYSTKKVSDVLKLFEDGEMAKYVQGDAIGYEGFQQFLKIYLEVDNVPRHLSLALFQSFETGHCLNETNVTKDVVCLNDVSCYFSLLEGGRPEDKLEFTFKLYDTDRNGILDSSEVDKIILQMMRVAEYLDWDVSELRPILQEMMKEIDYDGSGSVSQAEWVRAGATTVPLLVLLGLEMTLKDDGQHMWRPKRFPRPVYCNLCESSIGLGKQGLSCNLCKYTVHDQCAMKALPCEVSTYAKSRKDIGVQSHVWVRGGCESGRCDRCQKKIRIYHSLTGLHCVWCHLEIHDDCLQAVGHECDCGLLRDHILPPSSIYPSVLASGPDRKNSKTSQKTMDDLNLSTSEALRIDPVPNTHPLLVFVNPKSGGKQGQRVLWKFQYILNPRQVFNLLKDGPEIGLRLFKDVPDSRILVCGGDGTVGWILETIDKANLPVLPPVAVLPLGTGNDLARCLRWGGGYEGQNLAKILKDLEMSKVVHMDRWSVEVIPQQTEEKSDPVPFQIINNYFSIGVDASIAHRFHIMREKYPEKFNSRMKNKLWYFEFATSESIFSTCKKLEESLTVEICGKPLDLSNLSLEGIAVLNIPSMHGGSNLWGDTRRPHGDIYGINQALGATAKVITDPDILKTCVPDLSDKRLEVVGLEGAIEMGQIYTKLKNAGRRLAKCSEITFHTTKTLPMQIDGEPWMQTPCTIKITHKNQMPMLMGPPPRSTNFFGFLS
In general terms: ADP-Glo turns the ADP formed in a reaction into a luminescent signal.

For experiment [2], the target named is DGKζ (Homo sapiens (Human), UniProt Q13574). The experiment in a line: In vitro DGKζ inhibition assay (ADP-Glo). Format: biochemical. The settings on record: His-tagged human recombinant enzyme, 0.4 nM DGK, 30 μM ATP, 20 μM DLG, 90 minute incubation. A digest of the protocol:
as §1

Sequence of DGKζ (Q13574 whole entry): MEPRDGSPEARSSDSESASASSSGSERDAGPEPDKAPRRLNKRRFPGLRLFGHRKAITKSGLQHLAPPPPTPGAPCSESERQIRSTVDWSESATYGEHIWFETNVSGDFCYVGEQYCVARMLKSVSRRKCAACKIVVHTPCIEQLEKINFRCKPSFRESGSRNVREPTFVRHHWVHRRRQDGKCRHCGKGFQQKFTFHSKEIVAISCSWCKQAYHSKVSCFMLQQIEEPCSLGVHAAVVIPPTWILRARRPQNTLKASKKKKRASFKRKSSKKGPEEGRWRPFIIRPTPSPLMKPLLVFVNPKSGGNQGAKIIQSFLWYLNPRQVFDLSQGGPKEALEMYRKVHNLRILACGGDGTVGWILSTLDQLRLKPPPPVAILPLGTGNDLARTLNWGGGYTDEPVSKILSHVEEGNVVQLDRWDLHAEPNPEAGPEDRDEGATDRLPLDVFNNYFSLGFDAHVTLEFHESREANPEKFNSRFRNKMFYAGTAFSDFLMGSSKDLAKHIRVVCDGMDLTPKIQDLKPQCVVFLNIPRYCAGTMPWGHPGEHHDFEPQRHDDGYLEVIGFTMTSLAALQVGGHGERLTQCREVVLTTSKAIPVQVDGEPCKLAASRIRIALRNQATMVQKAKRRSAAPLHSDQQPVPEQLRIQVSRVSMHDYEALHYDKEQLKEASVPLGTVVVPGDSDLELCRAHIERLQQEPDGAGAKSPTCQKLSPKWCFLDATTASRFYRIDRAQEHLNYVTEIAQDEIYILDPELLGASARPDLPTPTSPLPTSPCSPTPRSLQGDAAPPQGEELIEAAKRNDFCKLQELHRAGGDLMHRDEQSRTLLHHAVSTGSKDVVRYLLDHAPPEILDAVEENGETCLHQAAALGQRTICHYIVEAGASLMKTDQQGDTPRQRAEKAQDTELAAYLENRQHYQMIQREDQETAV

`C[C@@H]1CN(c2nc3nncn3c3c2ncn3CCN(C)C)[C@@H](C)CN1C(c1ccc(F)c(Cl)c1)[C@H]1C[C@H](C(F)(F)F)C1` (stereo partly drawn) [Example 114, 2-(4-((2S,5R)-4-((3-chloro-4-fluorophenyl)((trans)-3-(trifluoromethyl)cyclobutyl)methyl)-2,5-dimethylpiperazin-1-yl)-1H-[1,2,4]triazolo[3,4-b]purin-1-yl)-N,N-dimethylethan-1-amine]: the IC50 in experiment [1] and in experiment [2] was at most 20 nM in each case.

Regarding `Cc1nc2c(N3C[C@@H](C)N(C(c4ccc(C(F)(F)F)cc4)[C@H]4C[C@H](C(F)(F)F)C4)C[C@@H]3C)nc3nncn3c2n1C[C@@H]1CCCO1` (stereo partly drawn) [Example 115, 4-((2S,5R)-2,5-Dimethyl-4-(((trans)-3-(trifluoromethyl)cyclobutyl)(4-(trifluoromethyl)phenyl)methyl)piperazin-1-yl)-2-methyl-1-(((S)-tetrahydrofuran-2-yl)methyl)-1H-[1,2,4]triazolo[3,4-b]purine], the IC50 in experiment [1] and in experiment [2] was at most 20 nM in each case.

Turning to `C[C@@H]1CN(c2nc3nncn3c3c2ncn3CCN(C)C)[C@@H](C)CN1C(c1ccc(C(F)(F)F)cc1)[C@H]1C[C@H](C(F)(F)F)C1` (stereo partly drawn) [Example 116, 2-(4-((2S,5R)-2,5-Dimethyl-4-(((trans)-3-(trifluoromethyl)cyclobutyl)(4-(trifluoromethyl)phenyl)methyl)piperazin-1-yl)-1H-[1,2,4]triazolo[3,4-b]purin-1-yl)-N,N-dimethylethan-1-amine], the IC50 in experiment [1] and in experiment [2] was at most 20 nM throughout.

`Cc1nc2c(N3C[C@@H](C)N(C(c4ccc(C(F)(F)F)cc4)C4CCC(F)(F)CC4)C[C@@H]3C)nc3nncn3c2n1C[C@@H]1CCCO1` (stereo partly drawn) [Example 117, 4-((2S,5R)-4-((4,4-Difluorocyclohexyl)(4-(trifluoromethyl)phenyl)methyl)-2,5-dimethylpiperazin-1-yl)-2-methyl-1-(((S)-tetrahydrofuran-2-yl)methyl)-1H-[1,2,4]triazolo[3,4-b]purine]: the IC50 in experiment [1] and in experiment [2] was at most 20 nM each time.

As to `Cc1nc2c(N3C[C@@H](C)N([C@H](c4ccc(OC(F)(F)F)cc4)C(C)C)C[C@@H]3C)nc3nncn3c2n1C[C@@H]1CCCO1` [Example 118, 4-((2S,5R)-2,5-Dimethyl-4-((S)-2-methyl-1-(4-(trifluoromethoxy)phenyl)propyl)piperazin-1-yl)-2-methyl-1-(((S)-tetrahydrofuran-2-yl)methyl)-1H-[1,2,4]triazolo[3,4-b]purine], the IC50 in experiment [1] and in experiment [2] was at most 20 nM throughout.

In the case of `Cc1nc2c(N3C[C@@H](C)N([C@@H](c4ccc(OC(F)(F)F)cc4)C(C)C)C[C@@H]3C)nc3nncn3c2n1C[C@@H]1CCCO1` [Example 119, 4-((2S,5R)-2,5-dimethyl-4-((R)-2-methyl-1-(4-(trifluoromethoxy)phenyl)propyl)piperazin-1-yl)-2-methyl-1-(((S)-tetrahydrofuran-2-yl)methyl)-1H-[1,2,4]triazolo[3,4-b]purine], the IC50 in experiment [1] and in experiment [2] was at most 20 nM in each case.

For the molecule `CC[C@@H]1CN(c2nc3nncn3c3c2nnn3C[C@@H]2CCCO2)[C@@H](C)CN1C(c1ccc(Cl)cc1)C1CC(F)(F)C1` (stereo partly drawn) [Example 121, 4-((2S,5R)-4-((4-Chlorophenyl)(3,3-difluorocyclobutyl)methyl)-5-ethyl-2-methylpiperazin-1-yl)-1-(((S)-tetrahydrofuran-2-yl)methyl)-1H-[1,2,3]triazolo[4,5-e][1,2,4]triazolo[4,3-a]pyrimidine], the IC50 in experiment [1] and in experiment [2] was at most 20 nM in each case.

On to `Cc1nc2c(N3C[C@@H](CO)N(C(c4ccc(C(F)(F)F)cc4)C4CC(F)(F)C4)C[C@@H]3C)nc3nncn3c2n1C[C@@H]1CCCO1` (stereo partly drawn) [Example 122, ((2S,5S)-1-((3,3-Difluorocyclobutyl)(4-(trifluoromethyl)phenyl)methyl)-5-methyl-4-(2-methyl-1-(((S)-tetrahydrofuran-2-yl)methyl)-1H-[1,2,4]triazolo[3,4-b]purin-4-yl)piperazin-2-yl)methanol], for which the IC50 in experiment [1] and in experiment [2] was at most 20 nM each time.

As to `Cc1nc2c(N3C[C@@H]([C@@H](C)O)N(C(c4ccc(F)cc4)c4ccc(F)cc4)C[C@@H]3C)nc3nncn3c2n1C[C@@H]1CCCO1` [Example 123, (R)-1-((2S,5S)-1-(Bis(4-fluorophenyl)methyl)-5-methyl-4-(2-methyl-1-(((S)-tetrahydrofuran-2-yl)methyl)-1H-[1,2,4]triazolo[3,4-b]purin-4-yl)piperazin-2-yl)ethan-1-ol], the IC50 in experiment [1] and in experiment [2] was at most 20 nM each time.

Regarding `Cc1nc2c(N3C[C@@H]([C@H](C)O)N(C(c4ccc(F)cc4)c4ccc(F)cc4)C[C@@H]3C)nc3nncn3c2n1C[C@@H]1CCCO1` [Example 124, (S)-1-((2S,5S)-1-(bis(4-fluorophenyl)methyl)-5-methyl-4-(2-methyl-1-(((S)-tetrahydrofuran-2-yl)methyl)-1H-[1,2,4]triazolo[3,4-b]purin-4-yl)piperazin-2-yl)ethan-1-ol], the IC50 in experiment [1] and in experiment [2] was at most 20 nM in each case.

In the case of `CC[C@@H]1CN(c2nc3nncn3c3c2nc(C)n3C[C@@H]2CCCO2)[C@@H](C)CN1C(CO)(c1ccc(F)cc1)c1ccc(F)cc1` [Example 125, 2-((2R,5S)-2-Ethyl-5-methyl-4-(2-methyl-1-(((S)-tetrahydrofuran-2-yl)methyl)-1H-[1,2,4]triazolo[3,4-b]purin-4-yl)piperazin-1-yl)-2,2-bis(4-fluorophenyl)ethan-1-01], the IC50 in experiment [1] and in experiment [2] was at most 20 nM each time.

As to `CC[C@@H]1CN(c2nc3nncn3c3c2nc(C)n3C[C@@H]2CCCO2)[C@@H](C)CN1[C@H](c1ccc(OC(F)F)cc1)C(C)C` [Example 126, 4-((2S,5R)-4-((S)-1-(4-(Difluoromethoxy)phenyl)-2-methylpropyl)-5-ethyl-2-methylpiperazin-1-yl)-2-methyl-1-(((S)-tetrahydrofuran-2-yl)methyl)-1H-[1,2,4]triazolo[3,4-b]purine], the IC50 in experiment [1] and in experiment [2] was at most 20 nM throughout.

`CC[C@@H]1CN(c2nc3nncn3c3c2nc(C)n3C[C@@H]2CCCO2)[C@@H](C)CN1[C@@H](c1ccc(OC(F)F)cc1)C(C)C` [Example 127, 4-((2S,5R)-4-((R)-1-(4-(difluoromethoxy)phenyl)-2-methylpropyl)-5-ethyl-2-methylpiperazin-1-yl)-2-methyl-1-(((S)-tetrahydrofuran-2-yl)methyl)-1H-[1,2,4]triazolo[3,4-b]purine]: the IC50 in experiment [1] and in experiment [2] was at most 20 nM each time.

Consider `CC[C@@H]1CN(c2nc3nncn3c3c2nc(C)n3C[C@@H]2CCCO2)[C@@H](C)CN1[C@H](c1ccc(C(F)(F)F)cc1)C(C)C` [Example 128, 4-((2S,5R)-5-Ethyl-2-methyl-4-((S)-2-methyl-1-(4-(trifluoromethyl)phenyl)propyl)piperazin-1-yl)-2-methyl-1-(((S)-tetrahydrofuran-2-yl)methyl)-1H-[1,2,4]triazolo[3,4-b]purine], for which the IC50 in experiment [1] and in experiment [2] was at most 20 nM each time.

With `CC[C@@H]1CN(c2nc3nncn3c3c2nc(C)n3C[C@@H]2CCCO2)[C@@H](C)CN1[C@@H](c1ccc(C(F)(F)F)cc1)C(C)C` [Example 129, 4-((2S,5R)-5-Ethyl-2-methyl-4-((R)-2-methyl-1-(4-(trifluoromethyl)phenyl)propyl)piperazin-1-yl)-2-methyl-1-(((S)-tetrahydrofuran-2-yl)methyl)-1H-[1,2,4]triazolo[3,4-b]purine], the IC50 in experiment [1] and in experiment [2] was at most 20 nM each time.

For the molecule `CC[C@@H]1CN(c2nc3nncn3c3c2nc(C)n3C[C@@H]2CCCO2)[C@@H](C)CN1[C@H](c1ccc(OC(F)(F)F)cc1)C(C)C` [Example 130, 4-((2S,5R)-5-ethyl-2-methyl-4-((S)-2-methyl-1-(4-(trifluoromethoxy)phenyl)propyl)piperazin-1-yl)-2-methyl-1-(((S)-tetrahydrofuran-2-yl)methyl)-1H-[1,2,4]triazolo[3,4-b]purine], the IC50 in experiment [1] and in experiment [2] was at most 20 nM throughout.

For the molecule `CC[C@@H]1CN(c2nc3nncn3c3c2nc(C)n3C[C@@H]2CCCO2)[C@@H](C)CN1[C@@H](c1ccc(OC(F)(F)F)cc1)C(C)C` [Example 131, 4-((2S,5R)-5-ethyl-2-methyl-4-((R)-2-methyl-1-(4-(trifluoromethoxy)phenyl)propyl)piperazin-1-yl)-2-methyl-1-(((S)-tetrahydrofuran-2-yl)methyl)-1H-[1,2,4]triazolo[3,4-b]purine], the IC50 in experiment [1] and in experiment [2] was at most 20 nM each time.

As for `CC[C@@H]1CN(c2nc3nncn3c3c2nc(C)n3C[C@@H]2CCCO2)[C@@H](C)CN1C(c1ccc(F)cc1)c1ccc(C#N)cc1` (stereo partly drawn) [Example 132, 4-(((2R,5S)-2-Ethyl-5-methyl-4-(2-methyl-1-(((S)-tetrahydrofuran-2-yl)methyl)-1H-[1,2,4]triazolo[3,4-b]purin-4-yl)piperazin-1-yl)(4-fluorophenyl)methyl)benzonitrile], the IC50 in experiment [1] and in experiment [2] was at most 20 nM throughout.

`CC[C@@H]1CN(c2nc3nncn3c3c2nc(C)n3C[C@@H]2CCCO2)[C@@H](C)CN1C(c1ccc(F)cc1)c1ccc(C#N)cc1` (stereo partly drawn) [Example 133, 4-(((2R,5S)-2-Ethyl-5-methyl-4-(2-methyl-1-(((S)-tetrahydrofuran-2-yl)methyl)-1H-[1,2,4]triazolo[3,4-b]purin-4-yl)piperazin-1-yl)(4-fluorophenyl)methyl)benzonitrile]: the IC50 in experiment [1] and in experiment [2] was at most 20 nM in each case.

These data come from patent US20230399342A1 (Incyte Corporation, priority 2022, published 2023).
